Where no end group is shown, it is not given here. The star is where a group is joined. Palmitoyl = CCCCCCCCCCCCCCCC(=O)*
How the values were obtained:
neutrophils [1] = experiment: Inhibition of FPR2 agonist-induced superoxide by pertussis toxin or kinase inhibitors; assay type: cell-based, human; conditions: WKYMVM 50 nM, F2Pal10 500 nM
Method: (§1) Human peripheral blood neutrophils were isolated from buffy coats from healthy blood donors using dextran sedimentation and Ficoll-Paque gradient centrifugation as described. The remaining erythrocytes were disrupted by hypotonic lysis, the neutrophils were washed twice, resuspended in KRG, and stored on melting ice until use. This isolation procedure permits cells to be purified with minimal granule mobilization.
(§2) The NADPH-oxidase activity was determined using isoluminol-enhanced chemiluminescence (CL), [27]. The CL activity was measured in a six-channel Biolumat LB 9505 (Berthold Co., Wildbad, Germany), using disposable 4-ml polypropylene tubes with a 900 µl reaction mixture containing 10^5 cells, isoluminol (2×10^−5 M) and HRP (2 U). The tubes were equilibrated in the Biolumat for 5 min at 37°C, after which the stimulus (100 µl) was added and the light emission was recorded continuously. Receptor desensitized cells were defined as naïve (non-desensitized) cells that had first been stimulated with a receptor specific agonist and returned to baseline after the resulting release of superoxide before a second stimulation. When reactivation experiments were performed with antagonists, the antagonists were added to the CL reaction mixture 1 min before the second stimulation. For studies with signaling inhibitors, cells were incubated with inhibitors at 37°C for 15 min before agonist addition. Control cells received no treatment but were incubated under the same conditions.
A. Primary human neutrophils were treated with pertussis toxin (PTX, 500 ng/ml final concentration) and samples were withdrawn at indicated time points. […] As a control, the PMA response (5×10^−8 M final concentration) from control cells (120 min incubation without PTX, solid line in the inset) or treated with PTX for 120 min (dashed line in the inset) is shown. Superoxide production (peak values) from pertussis toxin treated neutrophils was compared to that from non-treated control cells. A representative experiment out of more than five is shown. B and C. Fluo-3-AM/FuraRED labeled neutrophils were incubated without any additive (solid lines) or with EGTA (2 mM; dotted lines). […] Traces of representative calcium responses are shown and at least three experiments have been performed. Abscissa, time of study (sec); ordinate, fluorescence (arbitrary unit). D. Primary human neutrophils were incubated with different pharmacological kinase inhibitors (1 µM final concentration) for 15 min at 37°C. Control cells were incubated at the same condition but received no inhibitors. […] Data are presented as % inhibition compared to the control response (peak values of superoxide production were used, mean±SEM, n = 3).
The effects of these inhibitors were determined using different concentrations ranging from 20 nM to 1 µM.

desensitized FPR2 = experiment: PAF-induced cross-talk reactivation of desensitized FPR2 (superoxide); assay type: cell-based, human; conditions: PAF 100 nM
Method: as §1, §2
Figure 3 PAF- or ATP-stimulation induces reactivation of desensitized FPR2. […] A representative experiment is shown and the time point for addition of FPR2 agonists is indicated by the first arrow, the time point for PAF stimulation (100 nM final concentration) with the second arrow. The control PAF response induced in naïve (non-desensitized) neutrophils is shown for comparison (dotted line). Abscissa: Time of study (min); ordinate: Superoxide production (Mcpm). B. Naïve neutrophils were first desensitized with F2Pal10 (F2Pal10des., 500 nM final concentration) and subsequently stimulated with PAF (100 nM final concentration; time point for PAF addition is indicated by an arrow). The FPR2 specific inhibitor PBP10 (1 µM) was added 1 min prior to PAF stimulation (dashed line) and the release of superoxide anions was recorded continuously. The PAF responses induced in naïve cells (solid line), as well as in F2Pal10-desensitized cells receiving no PBP10 (dotted line), are shown for comparison. Abscissa: Time of study (min); ordinate: Superoxide production (Mcpm). C. Effect of calyculin A on receptor cross-talk induced FPR2 reactivation. Cells desensitized with F2Pal10 (F2Pal10des.) were incubated with the phosphatase inhibitor calyculin A (60 nM; solid line) or buffer as control (dashed line) for 10 min at 37°C prior to PAF stimulation (100 nM). The release of superoxide anions was recorded continuously. Abscissa: Time of study (min); ordinate: Superoxide production (Mcpm). […] Abscissa: Time of study (min); ordinate: Superoxide production (Mcpm). […] The results are given as peak values of superoxide production following addition of ATPγS (mean+SEM; n = 3).
Figure 4 More pronounced reactivation was induced by PAF in neutrophils desensitized by the pepducin F2Pal10. […] The results are given as peak values of superoxide production from three separate experiments for the first stimulation with FPR2 agonists (mean+SEM, n = 3). […]

neutrophils [2] = experiment: Priming of FPR2 agonist-induced superoxide response; assay type: cell-based, human; conditions: for priming effect on F2Pal10-induced superoxide / priming effect on WKYMVM-induced superoxide: versus non-primed cells, n = 3; for priming effect on WKYMVM-induced superoxide: WKYMVM 50 nM
Method: as §1, §2
A. A representative experiment of an F2Pal10 induced response in control (solid line) and latrunculin A treated neutrophils (dashed line) is shown. The time point for addition of F2Pal10 is indicated by an arrow. Abscissa: Time of study (min); ordinate: Superoxide production (Mcpm). […] A non-priming cut-off line (fold increase = 1) is included as a horizontal broken line in the figure.

FPR2 = target: T1, FPR2 (Homo sapiens, UniProt P25090); experiment: Inhibition of F2Pal10-induced superoxide release by receptor inhibitors/antagonists; assay type: cell-based; conditions: F2Pal10 500 nM; PBP10 1 µM, cyclosporin H 1 µM; representative of more than five
T1 construct: Human peripheral blood neutrophils were isolated from buffy coats from healthy blood donors; endogenous in cells; host or cells: primary human peripheral blood neutrophils from buffy coats of healthy donors
T1 sequence (P25090 1-351): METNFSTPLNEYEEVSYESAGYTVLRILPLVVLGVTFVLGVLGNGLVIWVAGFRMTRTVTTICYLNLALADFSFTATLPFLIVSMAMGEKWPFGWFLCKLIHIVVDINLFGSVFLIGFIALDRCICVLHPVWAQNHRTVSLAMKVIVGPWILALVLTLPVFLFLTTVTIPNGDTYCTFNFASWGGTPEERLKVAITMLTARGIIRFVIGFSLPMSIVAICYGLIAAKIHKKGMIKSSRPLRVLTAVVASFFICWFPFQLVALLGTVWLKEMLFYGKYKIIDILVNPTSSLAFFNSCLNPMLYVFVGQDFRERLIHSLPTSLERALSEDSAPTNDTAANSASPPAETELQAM
Method: as §1
The NADPH-oxidase activity was determined using isoluminol-enhanced chemiluminescence (CL), [27]. The CL activity was measured in a six-channel Biolumat LB 9505 (Berthold Co., Wildbad, Germany), using disposable 4-ml polypropylene tubes with a 900 µl reaction mixture containing 10^5 cells, isoluminol (2×10^−5 M) and HRP (2 U). The tubes were equilibrated in the Biolumat for 5 min at 37°C, after which the stimulus (100 µl) was added and the light emission was recorded continuously. […]
Figure 1 The F2Pal10 pepducin specifically activates FPR2. A. Primary human neutrophils were activated by F2Pal10 (500 nM) in the absence (solid line) or presence of the receptor specific inhibitor PBP10 (FPR2 specific inhibitor; 1 µM final concentration, dashed line) or the FPR1 antagonist cyclosporin H (CysH; 1 µM final concentration, dotted line) and the release of superoxide anions was recorded continuously. […] The release of superoxide anions was recorded continuously. […]

[3] = target: T2, formyl peptide receptor 2 (FPR2) (human (endogenous in neutrophils), UniProt P25090 1-351); experiment: cell-based or functional assay
T2 sequence (looked up): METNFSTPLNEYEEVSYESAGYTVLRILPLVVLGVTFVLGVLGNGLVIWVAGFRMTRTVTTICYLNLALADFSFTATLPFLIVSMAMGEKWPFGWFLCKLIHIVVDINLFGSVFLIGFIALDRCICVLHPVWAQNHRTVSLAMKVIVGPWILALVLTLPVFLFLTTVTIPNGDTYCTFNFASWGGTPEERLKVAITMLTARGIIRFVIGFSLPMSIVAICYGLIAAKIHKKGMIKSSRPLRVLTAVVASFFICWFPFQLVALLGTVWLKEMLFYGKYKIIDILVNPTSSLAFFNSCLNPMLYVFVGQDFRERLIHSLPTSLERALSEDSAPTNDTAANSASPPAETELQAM

With `COC[C@H]1OC(=O)c2coc3c2[C@@]1(C)C1=C(C3=O)[C@@H]2CCC(=O)[C@@]2(C)C[C@H]1OC(C)=O` [Wortmannin] the “inhibition of F2Pal10- and WKYMVM-induced superoxide by kinase inhibitor” value (neutrophils [1]; inhibitors 20 nM to 1 µM (1 µM shown), 15 min at 37°C, n = 3) was “Very similar degrees of inhibition”.

`COC[C@@H]([C@H](O)[C@H](O)C(=O)NCC[C@H](C)c1nc(/C=C/C[C@@H]2O[C@]3(C[C@@H](O)[C@@H]2C)O[C@H]([C@H](C[C@H](O)[C@H](C)[C@H](O)[C@H](C)/C=C(C)/C(C)=C/C=C/C(C)=C\C#N)OC)[C@H](OP(=O)(O)O)C3(C)C)co1)N(C)C` [calyculin A] was tested, and the “inhibition of PAF response in FPR2-desensitized neutrophils” value (desensitized FPR2; inhibitor before PAF, calyculin A 60 nM 10 min at 37°C, PBP10 1 µM, WEB2086 data not shown) was “inhibited”, the “priming effect on F2Pal10-induced superoxide” value (neutrophils [2]; F2Pal10 500 nM) was “Very similar priming effects” and the “priming effect on WKYMVM-induced superoxide” value (neutrophils [2]) was “significantly more superoxide than non-primed control cells”.

For `C/C1=C/C(=O)O[C@@H]2C[C@@H](CC[C@H](C)/C=C\C=C\CC1)O[C@@](O)([C@@H]1CSC(=O)N1)C2` [latrunculin A], the “effect on neutrophil response to F2Pal10” value (neutrophils [2]; F2Pal10 500 nM, latrunculin A treated) was “dramatically increased and prolonged”.

TNFα was tested, and the “priming effect on F2Pal10-induced superoxide” value (neutrophils [2]; F2Pal10 500 nM) was “Very similar priming effects” and the “priming effect on WKYMVM-induced superoxide” value (neutrophils [2]) was “significantly more superoxide than non-primed control cells”.

In the case of cyclosporin H, the “inhibition of F2Pal10-induced superoxide response” value (FPR2) is reported as “not affected”.

In the case of pertussis toxin, the “inhibition of F2Pal10- and WKYMVM-induced oxidase response by pertussis toxin” value (neutrophils [1]; PTX 500 ng/ml, 90 and 120 min) is reported as “largely inhibited”.

For platelet activating factor [PAF], the “reactivation of desensitized FPR2 by PAF” value (desensitized FPR2; FPR2-desensitized neutrophils) was “reactivates desensitized FPR2 to an actively signaling state”.

For Palmitoyl-KIHKKGMIKS [F2Pal10 pepducin], the “maximum superoxide response of human neutrophils, relative to that induced by WKYMVM” value [3] was 70% and the “superoxide release (NADPH-oxidase activity, isoluminol chemiluminescence) from human neutrophils, F2Pal10 50-2000 nM, EC50” value [3] was about 300 nM.

Reference: article PMC4193777 (PLoS ONE, 2014)
